Test results reported in patent USRE39485E1 (Aesgen, Inc., priority 1993, dated 2007).
Values joined by “and” are separate entries in the source; they are usually repeats but may differ in a detail not shown here. Identical values can stand only once.

Legend:
[1] = tested on: adults undergoing allogeneic bone marrow transplantation for hematologic malignancies; conditions: cited from earlier work
[2] = tested on: patients experiencing mucositis of the oropharynx following a course of chemotherapy; experiment: Oral glutamine swish and swallow trial in patients with chemotherapy induced oral mucositis; format: in vivo, human; set-up: key to Maximum Grade of Mucositis: 0: no mucositis; 1: painful mucositis not necessitating a change in oral intake; 2A: painful mucositis restricting intake to soft foods; 2B: painful mucositis restricting oral intake to liquids; 3: mucositis preventing oral intake
Text: Patients experiencing mucositis of the oropharynx following a course of chemotherapy were offered the opportunity to enter this study if no other clinical parameters precluded receiving the same chemotherapy doses during the next course of treatment. […] Other carriers, flavor enhancers, gums, and suspending agents known in the art may be employed. The suspension was stored in a refrigerator during use for a maximum of 1 month. […] The severity of mucositis was graded as: 0, no mucositis; 1, painful mucositis not necessitating a change in oral intake; 2A, painful mucositis restricting intake to soft foods; 2B, painful mucositis restricting oral intake to liquids; and 3, mucositis preventing oral intake (CALGB criteria). Maximum grade of mucositis and total number of days of mucositis were compared by the paired t-test. All patients gave written informed consent, and the trial was approved by the Institutional Review Board of the University of Minnesota. Ten adults, 5 men and 5 women, were entered in the study. […] One patient with AIDS and Kaposi's sarcoma was treated with doxorubicin by constant iv infusion over 5 days with bolus DTIC and vincristine. One patient with breast cancer was treated with doxorubicin, cyclophosphamide, and 5-FU, iv bolus.

[3] = tested on: rats treated with methotrexate; conditions: glutamine supplementation of an elemental diet; cited from earlier work
[4] = 0.57 g/kg/day in parenteral nutrition solutions for 5 days; cited from earlier work
[5] = oral dose of 0.3 g/kg; cited from earlier work
[6] = tested on: animals given methotrexate; conditions: administered after methotrexate; cited from earlier work
[7] = tested on: rats given abdominal radiotherapy; conditions: glutamine group vs glycine enriched group; cited from earlier work
[8] = parenteral glutamine supplementation vs none

Compound: NC(=O)CC[C@H](N)C(=O)O [glutamine, L-glutamine]
- severity of oral mucositis (stomatitis) ([1]; high dosage of intravenous glutamine vs no glutamine): no difference
- episodes of clinical infections [1, 8]: fewer episodes of clinical infections
- median hospitalization [1, 8]: shorter median hospitalization
- nitrogen balance [1, 8]: better nitrogen balance
- Subjective Improvement of Mucositis ([2]; Chemotherapy + Glutamine 2 gm/m^2 BID vs previous identical chemotherapy without glutamine, one line per patient (1-10)): Yes (9×) and No
- Maximum Grade of Mucositis ([2]; chemotherapy + glutamine, L-glutamine 2 g/m^2 swish and swallow twice daily, one line per patient (1-10), CALGB criteria): 1 (7×) and 0 (3×)
- toxicity of the glutamine ([2]; oral glutamine 2 g/m^2 twice daily, ambulatory patients): absence of any detectable toxicity
- patients in whom the maximum grade of mucositis remained the same (grade 1) ([2]; with glutamine supplementation): 2/10
- patients in whom the total number of days of mucositis decreased ([2]; with glutamine supplementation): 9/10
- median score of maximum grade of mucositis ([2]; with glutamine supplementation (2 without), p=0.001): 1
- total number of days of mucositis, mean (SEM) ([2]; with glutamine supplementation (10.1±1.2 without), p=0.001): 3.8 ± 1.0 days
- patients in whom the maximum grade of mucositis decreased ([2]; with glutamine supplementation vs previous course, p=0.001): 8/10
- patients in whom glutamine allowed chemotherapy doses that would otherwise have had to be reduced due to mucositis ([2]; with the addition of glutamine): 8/10
- patients who felt that the mucositis was less severe ([2]; with the addition of glutamine): Nine of the 10
- incidence of bacteremia [3]: lower incidence of bacteremia
- mortality [3]: less mortaility
- mucosal weight of the jejunum and colon [3]: increased mucosal weight of the jejunum and colon
- survival [3]: longer survival
- weight loss [3]: less weight loss
- tolerability [4]: well tolerated
- clinical toxicity or measurable toxic metabolites (ammonia or glutamate) [5]: no evidence of clinical toxicity or generation of measurable toxic metabolites
- survival rate, enteral vs parenteral supplementation [6]: better survival rate
- mucosal structure [7]: more normal mucosal structure
- survival rate [7]: higher survival rate
